Experimental data reported in patent publication US20210255193A1, “LYSINE REACTIVE PROBES AND USES THEREOF” (The Scripps Research Institute, priority 2017, published 2021).
Blank lines part the entries; values can stand above or below the molecule they belong to.

Columns and labels:
Assay in all cases: competitive isoTOP-ABPP
Type in all cases: binding
[1] = target: T1, KPNA2 Importin subunit alpha-2 (Homo sapiens, UniProt P52292); conditions: for isoTOP-ABPP ratio (R) at liganded lysine P52292_K459: sol, 231
T1 construct: isoTOP-ABPP experiments performed in cell lysates (in vitro); endogenous in cells; host or cells: soluble proteome of human cancer cell lines (MDA-MB-231, Ramos, Jurkat)
How it was run: (§1)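 Fragments at 50 μM (activated esters) or 100 μM (guanidinylating agents) were incubated with 0.5 ml lysate before probe labeling. After 0.1 mM STP-alkyne for 1 h, samples were clicked to isotopically distinct TEV tags, and R taken as DMSO-over-compound MS1 peak-area ratio.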

[2] = target: T2, CNOT4 CCR4-NOT transcription complex subunit 4 (Homo sapiens, UniProt O95628); conditions: for isoTOP-ABPP ratio (R) at liganded lysine O95628_K134: sol, 231
T2 construct: isoTOP-ABPP experiments performed in cell lysates (in vitro); endogenous in cells; host or cells: MDA-MB-231 soluble lysate
T2 sequence (O95628 1-575): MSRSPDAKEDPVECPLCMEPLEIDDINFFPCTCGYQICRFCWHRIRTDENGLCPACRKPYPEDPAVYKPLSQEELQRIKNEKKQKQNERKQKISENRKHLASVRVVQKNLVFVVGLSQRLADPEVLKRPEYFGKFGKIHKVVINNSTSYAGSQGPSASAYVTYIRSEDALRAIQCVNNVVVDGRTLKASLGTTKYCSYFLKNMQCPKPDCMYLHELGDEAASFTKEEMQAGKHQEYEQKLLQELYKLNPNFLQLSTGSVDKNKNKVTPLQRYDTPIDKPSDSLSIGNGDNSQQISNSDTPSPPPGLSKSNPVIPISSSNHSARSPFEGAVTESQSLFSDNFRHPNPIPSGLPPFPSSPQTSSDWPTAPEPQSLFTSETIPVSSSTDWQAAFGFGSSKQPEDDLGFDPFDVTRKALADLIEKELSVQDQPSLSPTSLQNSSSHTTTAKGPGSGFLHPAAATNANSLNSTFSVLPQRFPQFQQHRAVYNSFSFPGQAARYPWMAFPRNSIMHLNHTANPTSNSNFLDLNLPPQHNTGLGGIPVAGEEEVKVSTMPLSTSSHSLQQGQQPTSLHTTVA
How it was run: as §1

[3] = target: T3, POLR2L DNA-directed RNA polymerases I, II, and III subunit (Homo sapiens, UniProt P62875); conditions: for isoTOP-ABPP ratio, lysine P62875_K67: 50 uM_231_sol_in vitro
T3 construct: isoTOP-ABPP experiments performed in cell lysates (in vitro); endogenous in cells; host or cells: soluble proteome of human cancer cell lines (MDA-MB-231, Ramos, Jurkat)
How it was run: as §1

[4] = target: T4, WARS Tryptophan--tRNA ligase, cytoplasmic (Homo sapiens, UniProt P23381); conditions: for isoTOP-ABPP reactivity ratio at lysine P23381_K256 / isoTOP-ABPP ratio (R) at liganded lysine P23381_K256: 50 uM, in vitro; for isoTOP-ABPP reactivity ratio at lysine P23381_K256: 231 sol; for isoTOP-ABPP ratio (R) at liganded lysine P23381_K256: sol, 231
T4 construct: isoTOP-ABPP experiments performed in cell lysates (in vitro); endogenous in cells; host or cells: soluble proteome of human cancer cell lines (MDA-MB-231; Ramos and Jurkat also prepared)
T4 sequence (P23381 1-471): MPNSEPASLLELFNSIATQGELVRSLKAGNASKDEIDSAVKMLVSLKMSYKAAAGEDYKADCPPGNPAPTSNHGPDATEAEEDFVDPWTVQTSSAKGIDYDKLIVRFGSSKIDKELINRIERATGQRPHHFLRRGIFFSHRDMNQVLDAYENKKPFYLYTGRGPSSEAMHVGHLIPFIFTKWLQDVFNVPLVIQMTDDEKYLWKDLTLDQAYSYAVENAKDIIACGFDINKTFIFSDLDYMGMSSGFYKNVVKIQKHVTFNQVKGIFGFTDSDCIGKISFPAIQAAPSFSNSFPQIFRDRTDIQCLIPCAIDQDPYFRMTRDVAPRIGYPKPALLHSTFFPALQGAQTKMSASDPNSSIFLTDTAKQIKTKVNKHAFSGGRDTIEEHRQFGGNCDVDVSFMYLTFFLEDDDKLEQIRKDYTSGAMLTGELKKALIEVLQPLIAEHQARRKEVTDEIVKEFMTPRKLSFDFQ
How it was run: as §1

R value (DMSO/fragment) for probe 1 labeling ([1]; P52292_K459, 50 uM, 231 sol, in vitro): 1.9 | R value (DMSO/fragment) for probe 1 labeling ([2]; O95628_K134, 50 uM, 231 sol, in vitro): 1.2 | R value (DMSO/fragment) for probe 1 labeling ([3]; P62875_K67, 50 uM, 231 sol, in vitro): 1.1
Structure (SMILES): COc1cc(CCC(=O)Oc2c(F)c(F)c(F)c(F)c2F)cc(OC)c1OC [fragment 23, Pentafluorophenyl 3-(3,4,5-trimethoxyphenyl)propanoate]

isoTOP-ABPP reactivity ratio at lysine P52292_K459 ([1]; 50 uM, 231 sol, in vitro): 1.2 | isoTOP-ABPP reactivity ratio at lysine O95628_K134 ([2]; 50 uM, 231 sol, in vitro): 1.0 | isoTOP-ABPP reactivity ratio at lysine P62875_K67 ([3]; 50 uM, 231 sol, in vitro): 0.9
Structure (SMILES): O=C(Oc1c(F)c(F)c(F)c(F)c1F)C1CCN(C(=O)OCc2ccccc2)CC1 [fragment 24, 1-Benzyl 4-(pentafluorophenyl) piperidine-1,4-dicarboxylate]

Structure (SMILES): O=C(CCc1cn(-c2ccccc2)nc1-c1ccccc1)Oc1ccc([N+](=O)[O-])cc1[N+](=O)[O-] [fragment 29, 2,4-Dinitrophenyl 3-(1,3-diphenyl-1H-pyrazol-4-yl)propanoate]
isoTOP-ABPP reactivity ratio at lysine P23381_K256 [4]: 0.9 | isoTOP-ABPP reactivity ratio at lysine P52292_K459 ([1]; 50 uM, 231 sol, in vitro): 2.0 | isoTOP-ABPP reactivity ratio at lysine O95628_K134 ([2]; 50 uM, 231 sol, in vitro): 1.1

Structure (SMILES): Cn1cc(CC(=O)Oc2ccc([N+](=O)[O-])cc2[N+](=O)[O-])c2ccccc21 [fragment 32, 2,4-Dinitrophenyl 2-(1-methyl-1H-indol-3-yl)acetate]
isoTOP-ABPP reactivity ratio at lysine P23381_K256 [4]: 0.9 | isoTOP-ABPP reactivity ratio at lysine P52292_K459 ([1]; 50 uM, 231 sol, in vitro): 1.8 | isoTOP-ABPP reactivity ratio at lysine O95628_K134 ([2]; 50 uM, 231 sol, in vitro): 2.1

Structure (SMILES): COc1cc(CCC(=O)Oc2ccc([N+](=O)[O-])cc2[N+](=O)[O-])cc(OC)c1OC [fragment 33, 2,4-Dinitrophenyl 3-(3,4,5-trimethoxyphenyl)propanoate]
isoTOP-ABPP reactivity ratio at lysine P23381_K256 [4]: 0.8 | isoTOP-ABPP reactivity ratio at lysine P52292_K459 ([1]; 50 uM, 231 sol, in vitro): 1.8 | isoTOP-ABPP reactivity ratio at lysine O95628_K134 ([2]; 50 uM, 231 sol, in vitro): 1.4

Structure (SMILES): O=C(CCc1coc2cc(F)ccc2c1=O)Oc1ccc([N+](=O)[O-])cc1[N+](=O)[O-] [fragment 36, 2,4-Dinitrophenyl 3-(7-fluoro-4-oxo-4H-chromen-3-yl)propanoate]
isoTOP-ABPP ratio (R) at liganded lysine P23381_K256 [4]: 1.0 | isoTOP-ABPP ratio (R) at liganded lysine P52292_K459 ([1]; 50 uM, in vitro): 9.2 | isoTOP-ABPP ratio (R) at liganded lysine P62875_K67 ([3]; 50 uM, in vitro, sol, 231): 4.1

Structure (SMILES): O=C(CC12CC3CC(CC(C3)C1)C2)Oc1ccc([N+](=O)[O-])cc1[N+](=O)[O-] [fragment 38, 2,4-Dinitrophenyl 2-(adamantan-1-yl)acetate]
isoTOP-ABPP ratio (R) at liganded lysine P23381_K256 [4]: 1.4 | isoTOP-ABPP ratio (R) at liganded lysine P52292_K459 ([1]; 50 uM, in vitro): 20.0 | isoTOP-ABPP ratio (R) at liganded lysine O95628_K134 ([2]; 50 uM, in vitro): 1.2

Structure (SMILES): CC(=O)Oc1ccc([N+](=O)[O-])cc1[N+](=O)[O-] [fragment 43, 2,4-Dinitrophenyl acetate]
isoTOP-ABPP ratio (R) at liganded lysine P23381_K256 [4]: 1.0 | isoTOP-ABPP ratio (R) at liganded lysine P52292_K459 ([1]; 50 uM, in vitro): 2.6 | isoTOP-ABPP ratio (R) at liganded lysine O95628_K134 ([2]; 50 uM, in vitro): 1.3

isoTOP-ABPP ratio, lysine P52292_K459 ([1]; 50 uM_231_sol_in vitro): 1.2 | isoTOP-ABPP ratio, lysine O95628_K134 ([2]; 50 uM_231_sol_in vitro): 1.5 | isoTOP-ABPP ratio, lysine P62875_K67 [3]: 1.0
Structure (SMILES): O=C(Oc1c(F)c(F)c(C(F)(F)F)c(F)c1F)c1cc(C(F)(F)F)cc(C(F)(F)F)c1 [fragment 47, 2,3,5,6-Tetrafluoro-4-(trifluoromethyl)phenyl 3,5-bis(trifluoromethyl)benzoate]

isoTOP-ABPP ratio, lysine P52292_K459 ([1]; 50 uM_231_sol_in vitro): 1.1 | isoTOP-ABPP ratio, lysine P62875_K67 [3]: 0.9
Structure (SMILES): O=C(Oc1c(F)c(F)cc(F)c1F)c1cc(C(F)(F)F)cc(C(F)(F)F)c1 [fragment 48, 2,3,5,6-Tetrafluorophenyl 3,5-bis(trifluoromethyl)benzoate]

isoTOP-ABPP ratio, lysine P23381_K256 ([4]; 100 uM_231_sol_in vitro): 1.0 | isoTOP-ABPP ratio, lysine P52292_K459 ([1]; 100 uM_231_sol_in vitro): 1.1 | isoTOP-ABPP ratio, lysine O95628_K134 ([2]; 100 uM_231_sol_in vitro): 1.4
Structure (SMILES): COC(=O)NC(=NC(=O)OCC1c2ccccc2-c2ccccc21)n1cccn1 [fragment 49, N-Methoxycarbonyl-N′-9-fluorenylmethoxycarbonyl-pyrazole-1-carboxamidine]

isoTOP-ABPP ratio, lysine P52292_K459 ([1]; 50 uM_231_sol_in vitro): 0.9 | isoTOP-ABPP ratio, lysine O95628_K134 ([2]; 50 uM_231_sol_in vitro): 0.9 | isoTOP-ABPP ratio, lysine P62875_K67 [3]: 1.0
Structure (SMILES): NC(=O)c1cc(C(F)(F)F)cc(C(F)(F)F)c1 [fragment 51, reference compound]
